Source: patent US6352993B1, “Pyrimidine derivatives and processes for the preparation thereof” (Yuhan Corporation, priority 1997, dated 2002)
Where a name gives a salt, the structure may show the parent alone.

Key:
[1] = biological target: proton pump (H+/K+-ATPase) (UniProt P19156); test: Inhibition of proton pump (H+/K+-ATPase activity); assay type: biochemical; design: Effect ratio; settings: relative to omeprazole IC50
Experimental: (§1) Test 1: Inhibition of proton pump (H^+/K^+-ATPase activity)
(§2) A proton pump enzyme was prepared by the same method as in the Experiment 1-1 of WO 94/14795. Further, the inhibitory effect of proton pump activity was measured by the same method as in Experiment 1-2 of WO 94/14795.
(§3) Namely, the proton pump activity stimulated by Mg^++ was used as a negative comparative group, and the activity stimulated by Mg^++ and K^+ was used as a positive comparative group. The comparative compound was omeprazole.
(§4) Test tubes were divided into 4 groups: Group 1 as negative comparative group(n=3), Group 2 as positive comparative group(n=3), Group 3(n=5×2) to be administered with the compound of the present invention and Group 4(n=5×2) to be administered with the comparative compound.
(§5) The inhibitory effects of Groups 3 and 4 on proton pump activity were measured by employing the compound prepared in Examples and omeprazole, respectively, each of which was dissolved in dimethylsulfoxide at 5 different concentrations.
(§6) To each of Groups 1, 2, 3 and 4 were added 100 μl of magnesium chloride(40 mM) dissolved in 40 mM Tris-HCI buffer(ph 6.0) and 100 μg of the enzyme source. The 50 μl of potassium chloride(50 mM) and 50 μl of ammonium chloride(6 mM) dissolved in 40 mM Tris-HCl buffer(pH 6.0) were added to all groups except for group 1.
(§7) 10 μl of dimethylsulfoxide was added to each of Groups 1 and 2; and to Group 3 was added 10 μl of dimethylsulfoxide solution prepared by dissolving compound of EXAMPLE at 5 different concentration(n=5×2). To Group 4, 10 μl of the solution prepared by dissolving omeprazole in dimethylsulfoxide at 5 different concentration(37.6, 21.4, 12.2, 7.0 and 4.0 μM) was added(n=5×2). 40 mM Tris-HCI buffer(pH=6.0) was added thereto so as to make the total volume 400 μl.
(§8) Thereafter, the test tube of each Group were placed at 37° C. for 30 minutes for the preincubation. 100 μl ATP solution (6.6 mM) was added until the reaction volume became 500 μl. After the reaction was carried out at 37° C. for 30 minutes, 25% cold trichloroacetic acid was added to terminate the enzyme reaction. The released inorganic phosphate was measured by an automatic analyzer(Express 550, coming).
(§9) The difference between Group 1 and Group 2 represents the proton pump activity activated by K^+ only. The IC50s of Group 3 and 4 were calculated from Litchfield-wilcoxon equation[see, e.g., J. Pharrnacol. Exp. Ther., 96, 99(1949)]. The concentrations of the test compounds inhibiting 50% of the proton pump activity are represented as IC50 in Table 1.

[2] = tested on: gastric secretion in pylorus-ligated Sprague-Dawly rats; test: Inhibition of gastric secretion (pylorus-ligated rats, Shay method); assay type: in vivo; settings: 20 mg/kg intraduodenally, 5 hours; for Relative conc.: gastric juice acidity relative to omeprazole, equation (II); for Relative volume: gastric juice amount relative to omeprazole, equation (I); for Relative Acid Output: total acid output relative to omeprazole, equation (III)
Experimental: Test 2: Inhibition of gastric secretion
In accordance with the method disclosed in Shay, H., et al., Gastroenterology 5 43-61(1945), Test 2 was carried out.
Sprague-Dawly rats having a body weight of 170±10 g were divided into 3 groups(n=5) and deprived of food for 24 hours before the experiment with free access to water. Under ether anesthesia, the abdomen was incised, and the pylorus was ligated. As a comparative group, Group 1 was administered intraduodenally in a volume of 0.5 ml/200 g of 30% aqueous polyethylene glycol 400 solution. Groups 2 and 3 were administered intraduodenally with the compound of Example and omeprazole, respectively, each of which was suspended in 30% aqueous polyethylene glycol 400 solution at a concentration of 20 mg/kg. After closing the abdominal cavity, the rats were placed for 5 hours and then killed by cervical dislocation. The stomach was extracted to obtain gastric juice.
Tne gastric juice was centrifuged at 1,000 g to remove precipitates. The amount and acidity of the gastric juice were measured. Relative volumes, relative acid concentrations and relative acid outputs of the test compounds were calculated from equations(I), (II) and (III) and the results are shown in Table 2.
Relative volume=(the average amount of gastric juice of Group 1—the average amount of gastric juice of Group 2)/(the average amount of gastric juice of Group 1−the average amount of gastric juice of Group 3)—(I)
Relative acid concerntration=(the average acidity of Group 1—the average acidity of Group 2)/(the average acidity of Group 1—the average acidity of Group 3)—(II)
Relative acid output (the total amount of acid output of Group 1—the total amount of acid output of Group 2)/(the total amount of acid output of Group 1—the total amount of acid output of Group 3)—(m)

[3] = biological target: proton pump (H+/K+-ATPase) (UniProt P19156); test: Inhibition of proton pump (H+/K+-ATPase activity); assay type: biochemical; design: other: K+-stimulated proton pump activity, pH 6.0, 37°; settings: K+-stimulated proton pump activity, pH 6.0, 37° C., 30 minutes preincubation; read-out: IC50 (concentration inhibiting 50% of the proton pump activity)
Experimental: as §1, §2, §3, §4, §5, §6, §7, §8, §9

| Effect ratio [1] | IC50 [3] [µM] | Compound | Relative conc. [2] | Relative volume [2] | Relative Acid Output [2] |
| --- | --- | --- | --- | --- | --- |
| 1.4 | 7.85 | C=CCNc1nc(C)c(C)c(N2CCc3ccccc3C2)n1 [Example 2, 5,6-dimethyl-2-(3-allylamino)-4-(1,2,3,4-tetrahydroisoquinolin-2-yl)pyrimidine hydrochloride] | 0.57 | 0.69 | 0.70 |
| 1.6 | 6.91 | COCCNc1nc(C)c(C)c(N2CCc3ccccc3C2)n1.Cl [Example 5, 5,6-dimethyl-2-(2-methoxyethylamino)-4-(1,2,3,4-tetrahydroisoquinolin-2-yl)pyrimidine hydrochloride] | 0.18 | 0.45 | 0.43 |
| 5.2 | 2.15 | Cc1nc(NCC(C)C)nc(N2CCc3ccccc3C2C)c1C (stereo not shown) [Example 14, 5,6-dimethyl-2-isobutylamino-4-(1-methyl-1,2,3,4-tetrahydroisoquinolin-2-yl)pyrimidine] | 0.41 | 0.93 | 0.79 |
| 1.7 | 6.69 | Cc1csc(Nc2nc(C)c(C)c(N3CCc4ccccc4C3C)n2)n1.Cl (stereo not shown) [Example 22, 5,6-dimethyl-2-(4-methylthiazol-2-yl)amino-4-(1-methyl-1,2,3,4-tetrahydroisoquinolin-2-yl)pyrimidine hydrochloride] | 0.46 | 0.59 | 0.62 |
| 25.8 | 0.43 | Cc1csc(Nc2nc(C)c(C)c(N3CCc4ccccc4C3)n2)n1.Cl [Example 23, 5,6-dimethyl-2-(4-methylthiazol-2-yl)amino-4-(1,2,3,4-tetrahydroisoquinolin-2-yl)pyrimidine hydrochloride] | 1.34 | 1.58 | 1.23 |
| 61.7 | 0.18 | Cc1nc(Nc2ccc(F)cc2)nc(N2CCc3c(O)ccc(O)c3C2C)c1C.Cl (stereo not shown) [Example 43, 5,6-dimethyl-2-(4-fluorophenylamino)-4-(5,8-dihydroxy-1-methyl-1,2,3,4-tetrahydroisoquinolin-2-yl)pyrimidine hydrochloride] | – | – | – |
| – | – | CC(=O)OCc1nc(Nc2ccc(F)cc2)nc(N2CCc3ccccc3C2C)c1C (stereo not shown) [Example 50, 5-methyl-6-acetoxymethyl-2-(4-fluorophenylamino)-4-(1-methyl-1,2,3,4-tetrahydroisoquinolin-2-yl)pyrimidine] | 0.77 | 1.01 | 0.98 |
| – | – | CCC(=O)OCc1nc(Nc2ccc(F)cc2)nc(N2CCc3ccccc3C2C)c1C (stereo not shown) [Example 51, 5-methyl-6-ethylcarbonyloxymethyl-2-(4-fluorophenylamino)-4-(1-methyl-1,2,3,4-tetrahydroisoquinolin-2-yl)pyrimidine] | 1.02 | 1.09 | 1.06 |
| – | – | Cc1c(COC(=O)C(C)C)nc(Nc2ccc(F)cc2)nc1N1CCc2ccccc2C1C (stereo not shown) [Example 52, 5-methyl-6-isopropylcarbonyloxymethyl-2-(4-fluorophenylamino)-4-(1-methyl-1,2,3,4-tetrahydroisoquinolin-2-yl)pyrimidine] | 0.88 | 0.86 | 0.96 |
| – | – | Cc1c(COC(=O)C2CC2)nc(Nc2ccc(F)cc2)nc1N1CCc2ccccc2C1C (stereo not shown) [Example 54, 5-methyl-6-cyclopropylcarbonyloxymethyl-2-(4-fluorophenylamino)-4-(1-methyl-1,2,3,4-tetrahydroisoquinolin-2-yl)pyrimidine] | 0.79 | 0.79 | 0.95 |
| – | – | Cc1nc(Nc2ccc(F)cc2)nc(N2CCc3cc(OC(=O)c4ccc([N+](=O)[O-])cc4)ccc3C2C)c1C (stereo not shown) [Example 107, 5,6-diinethyl-2-(4-fluorophenylamino)-4-{1-methyl-6-(4-nitrobenzoyloxy)-1,2,3,4-tetrahydroisoquinolin-2-yl}pyrimidine] | 0.56 | 0.62 | 0.73 |
| – | – | Cc1c(COC(=O)CNC(=O)OC(C)(C)C)nc(Nc2ccc(F)cc2)nc1N1CCc2ccccc2C1C (stereo not shown) [Example 139, 5-methyl-6-(N-t-butoxycarbonyl-glycyloxymetyl)-2-(4-fluorophenylamino)-4-(1-methyl-1,2,3,4-tetrahydroisoquinolin-2-yl)pyrimidine] | 0.75 | 1.01 | 1.01 |
| – | – | Cc1c(COC(=O)C(Cc2cn(Cc3ccccc3)cn2)NC(=O)OC(C)(C)C)nc(Nc2ccc(F)cc2)nc1N1CCc2ccccc2C1C (stereo not shown) [Example 144, 5-methyl-6-(N-t-butoxycarbonyl-Im-benzyl-histidyloxymethyl)-2-(4-fluorophenylamino)-4-(1-methyl-1,2,3,4-tetrahydroisoquinolin-2-yl)pyrimidine] | 0.80 | 0.90 | 0.94 |
| – | – | Cc1c(COC(=O)[C@@H](N)C(C)C)nc(Nc2ccc(F)cc2)nc1N1CCc2ccccc2C1C.Cl.Cl (stereo partly shown) [Example 171, 5-methyl-6-valyloxymethyl-2-(4-fluorophenylamino)-4-(1-methyl-1,2,3,4-tetrahydroisoquinolin-2-yl)pyrimidine dibydrochloride] | 1.42 | 1.46 | 1.33 |
| – | – | Cc1c(COC(=O)[C@@H](N)Cc2ccccc2)nc(Nc2ccc(F)cc2)nc1N1CCc2ccccc2C1C.Cl.Cl (stereo partly shown) [Example 172, 5-methyl-6-(phenylalanyloxymethyl)-2-(4-fluorophenylamino)-4-(1-methyl-1,2,3,4-tetrahydroisoquinolin-2-yl)pyrimidine dihydrochloride] | 1.33 | 1.48 | 1.34 |
| – | – | Cc1c(COC(=O)CN2CCOCC2)nc(Nc2ccc(F)cc2)nc1N1CCc2ccccc2C1C.Cl.Cl (stereo not shown) [Example 175, 5-methyl-6-(4-morpholineacetoxymethyl)-2-(4-fluorophenylamino)-4-(t1-methyl-1,2,3,4tetrahydroisoquinolin-2-yl)pyrimidine dihydrochloride] | 0.30 | 0.87 | 0.79 |
| – | – | Cc1c(COC(=O)CN2CCCCC2)nc(Nc2ccc(F)cc2)nc1N1CCc2ccccc2C1C.Cl.Cl (stereo not shown) [Example 181, 5-rethyl-6-(1-piperidineacetoxymethyl)-2-(4-fluorophenylamino)-4-(1-methyl-1,2,3,4-tetrahydroisoquinolin-2-yl)pyrimidine dihydrochloride] | 0.16 | 0.99 | 0.80 |
| – | 11.1 | COc1ccc2[nH]c([S+]([O-])Cc3ncc(C)c(OC)c3C)nc2c1 (stereo not shown) [Omeprazole, omeprazole, reference compound] | – | – | – |
